Patent US10251889B2, “Substituted pyrazolo[1,5-a]pyrimidine compounds as Trk kinase inhibitors” (Array BioPharma, Inc., priority 2009, dated 2019)
pIC50: −log10 of the molar value. Read-outs that look alike come from different tables or passages of the source.

Assays:
Format in all cases: biochemical
[1] = target: TrkA (histidine-tagged recombinant human TrkA, cytoplasmic domain) (Homo sapiens (Human), UniProt P04629); assay: TrkA ELISA assay; settings: Table 1, 500 μM ATP, read-out: TrkA Enzyme IC50
Sequence of TrkA (histidine-tagged recombinant human TrkA, cytoplasmic domain) (P04629 440-796): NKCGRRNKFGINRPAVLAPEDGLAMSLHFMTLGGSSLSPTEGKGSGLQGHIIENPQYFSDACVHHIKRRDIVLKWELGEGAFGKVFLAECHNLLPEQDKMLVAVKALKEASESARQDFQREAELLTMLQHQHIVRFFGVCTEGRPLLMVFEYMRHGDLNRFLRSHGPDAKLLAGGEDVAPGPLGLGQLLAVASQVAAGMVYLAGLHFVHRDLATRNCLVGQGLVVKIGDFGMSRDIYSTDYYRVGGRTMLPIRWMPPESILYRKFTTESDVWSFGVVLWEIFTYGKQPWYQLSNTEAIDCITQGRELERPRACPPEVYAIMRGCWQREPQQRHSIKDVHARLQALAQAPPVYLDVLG
Experimental: An enzyme-linked immunosorbant assay (ELISA) was used to assess TrkA kinase activity in the presence of inhibitors. Immulon 4HBX 384-well microtiter plates (Thermo part #8755) were coated with a 0.025 mg/mL solution of poly (Glu, Ala, Tyr; 6:3:1; Sigma P3899). […] The assay buffer consisted of 25 mM MOPS pH 7.5, 0.005% (v/v) Triton X-100 and 5 mM MgCl2. The reaction mixture was removed from the plate by washing with PBS containing 0.1% (v/v) Tween 20. The phosphorylated reaction product was detected using 0.2 μg/mL of a phosphotyrosine specific monoclonal antibody (clone PY20) conjugated to horseradish peroxidase in conjunction with the TMB Peroxidase Substrate System (KPL). After the addition of 1M phosphoric acid, the chromogenic substrate color intensity was quantitated via absorbance at 450 nm.

[2] = target: Jak2 (human Jak2 kinase domain, amino acids 808-1132) (Homo sapiens (Human), UniProt O60674); assay: Jak2 inhibition assay (Omnia kinase assay); settings: for pIC50: Table 1, 500 μM ATP, >1000 nM when >50% inhibition not observed at 1000 nM, read-out: Jak2 Enzyme IC50; for inhibition at 1 µM: 1000 nM test compound
Sequence of Jak2 (human Jak2 kinase domain, amino acids 808-1132) (O60674 808-1132): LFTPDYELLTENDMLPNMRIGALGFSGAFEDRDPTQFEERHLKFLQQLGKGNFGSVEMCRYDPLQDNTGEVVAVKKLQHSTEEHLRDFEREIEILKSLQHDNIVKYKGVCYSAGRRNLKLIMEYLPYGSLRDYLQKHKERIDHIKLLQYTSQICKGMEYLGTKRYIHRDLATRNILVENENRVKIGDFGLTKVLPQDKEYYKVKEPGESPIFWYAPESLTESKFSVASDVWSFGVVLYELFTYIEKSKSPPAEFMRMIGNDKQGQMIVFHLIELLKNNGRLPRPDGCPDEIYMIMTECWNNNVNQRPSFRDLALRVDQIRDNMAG

[3] = target: Jak1 (GST-tagged human Jak1 kinase domain, amino acids 866-1154) (Homo sapiens (Human), UniProt P23458); assay: Jak1 inhibition assay (Omnia kinase assay); settings: read-out: Jak1 (% inhibition at 1000 nM); Table 2; 1000 nM test compound
Sequence of Jak1 (GST-tagged human Jak1 kinase domain, amino acids 866-1154) (P23458 866-1154): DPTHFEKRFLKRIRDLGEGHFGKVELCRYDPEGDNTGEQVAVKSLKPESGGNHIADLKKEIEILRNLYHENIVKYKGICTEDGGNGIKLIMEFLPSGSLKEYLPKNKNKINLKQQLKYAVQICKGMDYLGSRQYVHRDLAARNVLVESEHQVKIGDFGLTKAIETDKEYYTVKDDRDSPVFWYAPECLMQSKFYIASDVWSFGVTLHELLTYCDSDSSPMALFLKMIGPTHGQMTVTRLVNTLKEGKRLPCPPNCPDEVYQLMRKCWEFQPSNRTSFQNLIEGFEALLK
Experimental: (§1) The assays described in Examples C, D, E and F for the determination of JAK1, JAK2, JAK3 and Tyk2 kinase activity, respectively, utilized the Omnia® Kinase fluorescence peptide substrate-based technology (Invitrogen). […] The reactions were therefore read at excitation 360 nm and emission was measured at 485 nm every 50 seconds for 45 minutes using a PerkinElmer EnVision Multilabel Plate Reader.
(§2) The final buffer conditions for each of the JAK1, JAK2, JAK3 and Tyk2 assays were as follows: 25 mM HEPES, pH 7.4, 10 mM MgCl2, 0.01% Triton X-100 and 1 mM DTT.
(§3) Compounds were prepared at 50× the final concentration in DMSO by conducting 3-fold serial dilutions from a 500-μM or 1000-μM intermediate dilution to give a 10-point dosing curve having a high dose of 10 or 20 μM. Two-μL aliquots of these were transferred to a fresh plate for a ten-fold intermediate dilution with assay buffer. Five-μL aliquots of the diluted compounds were then transferred to 20-μL of assay mixtures described in Examples C, D, E and F for a final concentration of DMSO of 2%. A standard or reference compound was typically included on each assay plate to validate that plate. For each plate, percent of control (POC) values were calculated for each well according to the following equation:
(§4) where Xmax=Average Uninhibited Controls • Xmin=Average Background IC50's were estimated from the POC's using a standard 4-parameter logistic model:
(§5) where A=Minimum Y (Bottom Asymptote) • B=Maximum Y (Top Asymptote) • C=EC50 • D=Slope Factor • X=Compound Concentration (nM) • Y=POC
(§6) The IC50 is defined as the concentration of inhibitor at which the POC equals 50 for the fitted curve.
Compounds of Formula I were screened for their ability to inhibit Jak1 using the general enzyme inhibition assay method, in which the assay mixture contained 500 μM ATP, 8 μM Omnia® Y12 peptide (Catalog # IVGN KPZ3121C; Invitrogen Corporation, Carlsbad, Calif.) and 5 nM Jak1 in a total volume of 20 μL. […] (catalog # IVGN PV4774).

[4] = target: Jak3 (GST-tagged human Jak3 kinase domain, amino acids 781-1124) (Homo sapiens (Human), UniProt P52333); assay: Jak3 inhibition assay (Omnia kinase assay); settings: read-out: Jak3 (% inhibition at 1000 nM); Table 2; 1000 nM test compound
Sequence of Jak3 (GST-tagged human Jak3 kinase domain, amino acids 781-1124) (P52333 781-1124): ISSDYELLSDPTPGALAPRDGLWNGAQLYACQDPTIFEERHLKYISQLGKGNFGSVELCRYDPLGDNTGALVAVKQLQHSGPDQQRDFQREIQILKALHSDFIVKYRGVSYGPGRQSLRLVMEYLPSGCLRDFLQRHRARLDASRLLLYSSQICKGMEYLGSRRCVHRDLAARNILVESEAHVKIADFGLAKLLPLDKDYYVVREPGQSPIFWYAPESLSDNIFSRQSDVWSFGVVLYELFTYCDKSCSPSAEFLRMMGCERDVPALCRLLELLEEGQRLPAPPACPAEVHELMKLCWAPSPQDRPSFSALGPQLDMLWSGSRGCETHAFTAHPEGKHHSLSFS
Experimental: as §1, §2, §3, §4, §5, §6
Compounds of Formula I were screened for their ability to inhibit Jak3 using the general enzyme inhibition assay method, in which the assay mixture contained 500 μM ATP, 10 μM Omnia® Y7 peptide (Catalog # IVGN KNZ3071C, Invitrogen Corporation, Carlsbad, Calif.) and 1.5 nM Jak3 in a total volume of 20 μL. GST-tagged human Jak3 kinase domain comprising amino acids 781-1124 was purchased from Invitrogen Corporation, Carlsbad, Calif. (catalog # IVGN PV3855).

[5] = target: Tyk2 (human Tyk2 kinase domain, amino acids 886 to 1187) (Homo sapiens (Human), UniProt P29597); assay: Tyk2 inhibition assay (Omnia kinase assay); settings: read-out: Tyk2 (% inhibition at 1000 nM); Table 2; 1000 nM test compound
Sequence of Tyk2 (human Tyk2 kinase domain, amino acids 886 to 1187) (P29597 886-1187): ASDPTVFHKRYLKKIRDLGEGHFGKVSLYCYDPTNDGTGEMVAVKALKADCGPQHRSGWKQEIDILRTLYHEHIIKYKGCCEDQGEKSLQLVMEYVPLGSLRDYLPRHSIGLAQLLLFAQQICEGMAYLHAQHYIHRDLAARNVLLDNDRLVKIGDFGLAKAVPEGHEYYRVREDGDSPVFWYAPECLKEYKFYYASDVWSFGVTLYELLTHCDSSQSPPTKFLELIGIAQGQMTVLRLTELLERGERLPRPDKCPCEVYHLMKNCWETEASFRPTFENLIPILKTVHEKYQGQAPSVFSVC
Experimental: as §1, §2, §3, §4, §5, §6
Compounds of Formula I were screened for their ability to inhibit Tyk2 using the general enzyme inhibition assay method, in which the assay mixture contained 500 μM ATP, 8 μM Omnia® Y12 peptide (Catalog # IVGN KPZ3121C; Invitrogen Corporation, Carlsbad, Calif.) and 1 nM Tyk2 in a total volume of 20 μL. Human Tyk2 kinase domain, comprising amino acids 886 to 1187 with 10 additional histidine residues (histidine tag) on the carboxy terminus, was expressed and purified from baculovirus in-house at Array BioPharma Inc. (Boulder, Colo.). The histidine tag was cleaved after purification using standard conditions.

[6] = read-out: Jak2 Enzyme (% inhibition at 1000 nM), Table 1
[7] = read-out: Jak2 (% inhibition at 1000 nM), Table 2

| SMILES | pIC50 [1] | pIC50 [2] | inhibition at 1 µM [2, 6] [%] | inhibition at 1 µM [2, 7] [%] | inhibition at 1 µM [3] [%] | inhibition at 1 µM [4] [%] | inhibition at 1 µM [5] [%] |
| --- | --- | --- | --- | --- | --- | --- | --- |
| C[C@@H](NC(=O)c1cnn2ccc(N3CCC[C@@H]3c3cncc(F)c3)nc12)C(F)(F)F [Example 129, 5-((R)-2-(5-fluoropyridin-3-yl)pyrrolidin-1-yl)-N-((R)-1,1,1-trifluoropropan-2-yl)pyrazolo[1,5-a]pyrimidine-3-carboxamide] | 8.10 | < 6.00 | 25.2 |  |  |  |  |
| NC(=O)c1cnn2ccc(N3CCC[C@@H]3c3cc(F)ccc3F)nc12 [Example 30, (R)-5-(2-(2,5-difluorophenyl)pyrrolidin-1-yl)pyrazolo[1,5-a]pyrimidine-3-carboxamide] |  |  | 25.7 | 30.4 | 13.4 | 2.9 | 11.3 |
| Cc1ncc(F)cc1[C@H]1CCCN1c1ccn2ncc(C(=O)NC3(C)CC3)c2n1 [Example 190, (R)-5-(2-(5-fluoro-2-methylpyridin-3-yl)pyrrolidin-1-yl)-N-(1-methylcyclopropyl)pyrazolo[1,5-a]pyrimidine-3-carboxamide] |  |  | 28.4 | 33.9 | 14.3 | 7.2 | 13.4 |
| C[C@@H](NC(=O)c1cnn2ccc(N3CCC[C@@H]3c3cncc(F)c3)nc12)C1CC1 [Example 123, N-((R)-1-cyclopropylethyl)-5-((R)-2-(5-fluoropyridin-3-yl)pyrrolidin-1-yl)pyrazolo[1,5-a]pyrimidine-3-carboxamide] |  |  | 38.8 | 49.1 | 22 | 8.9 | 14.4 |

Next, values leading:

| pIC50 [1] | pIC50 [2] | inhibition at 1 µM [2, 6] [%] | inhibition at 1 µM [2, 7] [%] | inhibition at 1 µM [3] [%] | inhibition at 1 µM [4] [%] | inhibition at 1 µM [5] [%] | SMILES |
| --- | --- | --- | --- | --- | --- | --- | --- |
| 7.80 |  | 14.4 |  |  |  |  | O=C(N[C@@H]1CCC[C@H]1O)c1cnn2ccc(N3CCC[C@@H]3c3cncc(F)c3)nc12 [Example 133, 5-((R)-2-(5-fluoropyridin-3-yl)pyrrolidin-1-yl)-N-((1R,2R)-2-hydroxycyclopentyl)pyrazolo[1,5-a]pyrimidine-3-carboxamide] |
| 7.90 | < 6.00 | 12.5 |  |  |  |  | CCc1ncc(F)cc1[C@H]1CCCN1c1ccn2ncc(C(=O)N[C@H]3CC[C@H](O)C3)c2n1 [Example 200, 5-((R)-2-(2-ethyl-5-fluoropyridin-3-yl)pyrrolidin-1-yl)-N-((1S,3S)-3-hydroxycyclopentyl)pyrazolo[1,5-a]pyrimidine-3-carboxamide] |
|  |  | 31.2 | 37.6 | 7.4 | 2.6 | 8.1 | Cc1ncc(F)cc1[C@H]1CCCN1c1ccn2ncc(C(=O)N[C@H]3CC[C@H](O)CC3)c2n1 [Example 194, 5-((R)-2-(5-fluoro-2-methylpyridin-3-yl)pyrrolidin-1-yl)-N-((trans)-4-hydroxycyclohexyl)pyrazolo[1,5-a]pyrimidine-3-carboxamide] |
|  |  | 5 | 15.6 | 10.9 | 8.5 | 11.4 | CNC(=O)c1cnn2ccc(N3CCC[C@@H]3c3cncc(F)c3)nc12 [Example 114, (R)-5-(2-(5-fluoropyridin-3-yl)pyrrolidin-1-yl)-N-methylpyrazolo[1,5-a]pyrimidine-3-carboxamide] |
|  |  | 34.9 | 42.1 | 20.3 | 8.3 | 14.8 | CC1(NC(=O)c2cnn3ccc(N4CCC[C@@H]4c4cncc(F)c4)nc23)CC1 [Example 91, (R)-5-(2-(5-fluoropyridin-3-yl)pyrrolidin-1-yl)-N-(1-methylcyclopropyl)pyrazolo[1,5-a]pyrimidine-3-carboxamide] |
|  |  | 34.7 | 42.2 | 19.7 | 10.6 | 17.2 | CC(C)NC(=O)c1cnn2ccc(N3CCC[C@@H]3c3cncc(F)c3)nc12 [Example 93, (R)-5-(2-(5-fluoropyridin-3-yl)pyrrolidin-1-yl)-N-isopropylpyrazolo[1,5-a]pyrimidine-3-carboxamide] |
